Measured values reported in patent US11000033B2, “Ketone or oxime compound, and herbicide” (NISSAN CHEMICAL CORPORATION, priority 2014, dated 2021).

Tests used:
Format in all cases: in vivo
Avena fatua = experiment: Test Example 5: herbicidal effect by foliage application, plastic box (symbol I); settings: 320 g/ha, 3 weeks after application
How it was run: (§1)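 Leaf-applied emulsion, water-diluted to a preset herbicide dose, on two-week-old seedlings raised in a 25° C. to 30° C. greenhouse; injury rated at 3 weeks using earlier criteria.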

Amaranthus retroflexus = experiment: Test Example 4: herbicidal effect by soil treatment (symbol N); settings: 320 g/ha
How it was run: (§2)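 Seeds were sown in sterilized diluvial soil, covered with about 1.5 cm of soil, and the soil surface was sprayed with a water-diluted emulsion of the compound at a predetermined rate. Plants grew in a greenhouse at 25° C. to 30° C.; effects were scored visually 3 weeks after application.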

wheat [1] = experiment: Test Example 4: effect on crop by soil treatment (symbol e); settings: 320 g/ha
How it was run: (§3)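 Diluvial soil (sterilized) in boxes; seeds placed spot-wise alongside weed species; ~1.5 cm covering soil. Greenhouse, 25–30° C.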

Galium spurium = experiment: Test Example 4: herbicidal effect by soil treatment (symbol Q); settings: 320 g/ha
How it was run: as §2

rice plant = experiment: Test Example 5: effect on crop by foliage application, plastic box (symbol b); settings: 320 g/ha, 3 weeks after application
How it was run: (§4)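 Greenhouse culture at 25° C. to 30° C. followed spot-like sowing into sterilized diluvial soil, with seed covered by roughly 1.5 cm of soil.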

rapeseed = experiment: Test Example 4: effect on crop by soil treatment (symbol g); settings: 320 g/ha
How it was run: as §3

[2] = test system: Echinochloa oryzacola Vasing.; experiment: Test Example 1: herbicidal activity, application before weed generation in submerged conditions (symbol A); settings: application herbicide amount 320 g/ha
How it was run: (§5)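 Pre-emergence, paddy conditions: emulsifiable formulation diluted in water, dosed onto floodwater (4 cm depth) on sowing day. Alluvial soil; weeds sown mixed; rice transplanted at 2.5-leaf stage. Greenhouse 25–30 °C, 3 wk. Score 0–5 (5 = ≥90% kill, 0 = ≤5%).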

Abutilon theophrasti = experiment: Test Example 5: herbicidal effect by foliage application, plastic box (symbol M); settings: 320 g/ha, 3 weeks after application
How it was run: as §1

Leptochloa chinensis = experiment: Test Example 3: herbicidal effect by foliage application, Wagner pot (symbol D); settings: application herbicide amount 320 g/ha
How it was run: (§6)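 Scoring took place 3 weeks after application, using fixed criteria. Plants had been raised from seed for 14 days at 25 to 30 °C in submerged alluvial soil before a diluted emulsion of the test compound was sprayed uniformly on the leaves.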

Cyperus difformis = experiment: Test Example 3: herbicidal effect by foliage application, Wagner pot (symbol E); settings: application herbicide amount 320 g/ha
How it was run: as §6

Lolium multiflorum Lam. = experiment: Test Example 4: herbicidal effect by soil treatment (symbol K); settings: 320 g/ha
How it was run: as §2

Apera spica-venti = experiment: Test Example 5: herbicidal effect by foliage application, plastic box (symbol L); settings: 320 g/ha, 3 weeks after application
How it was run: as §1

Chenopodium album [3] = experiment: Test Example 4: herbicidal effect by soil treatment (symbol O); settings: 320 g/ha
How it was run: as §2

rice = experiment: Test Example 4: effect on crop by soil treatment (symbol b); settings: 320 g/ha
How it was run: as §3

Monochoria vaginalis = experiment: Test Example 1: herbicidal activity, application before weed generation in submerged conditions (symbol C); settings: application herbicide amount 320 g/ha
How it was run: as §5

wheat [4] = experiment: Test Example 5: effect on crop by foliage application, plastic box (symbol e); settings: 320 g/ha, 3 weeks after application
How it was run: as §4

Stellaria media = experiment: Test Example 5: herbicidal effect by foliage application, plastic box (symbol P); settings: 320 g/ha, 3 weeks after application
How it was run: as §1

beet = experiment: Test Example 4: effect on crop by soil treatment (symbol f); settings: 320 g/ha
How it was run: as §3

Chenopodium album [5] = experiment: Test Example 5: herbicidal effect by foliage application, plastic box (symbol O); settings: 320 g/ha, 3 weeks after application
How it was run: as §1

Structure (SMILES) | I: Avena fatua, herbicidal effect (criteria 0-5) (Avena fatua) | N: Amaranthus retroflexus, herbicidal effect grade (Amaranthus retroflexus) | e: wheat, effect grade on crop (wheat [1]) | Q: Galium spurium, herbicidal effect grade (Galium spurium) | b: directly sowed rice plant, effect on crop (criteria 0-5) (rice plant) | g: rapeseed, effect grade on crop (rapeseed) | Herbicidal effect grade, A: Echinochloa oryzacola Vasing. [2] | M: Abutilon theophrasti, herbicidal effect (criteria 0-5) (Abutilon theophrasti) | herbicidal effect on D (Leptochloa chinensis), grade 0-5 (Leptochloa chinensis) | herbicidal effect on E, grade 0-5 (Cyperus difformis) | K: Lolium multiflorum Lam., herbicidal effect grade (Lolium multiflorum Lam.) | L: Apera spica-venti, herbicidal effect (criteria 0-5) (Apera spica-venti) | O: Chenopodium album, herbicidal effect grade (Chenopodium album [3]) | b: directly sowed rice plant, effect grade on crop (rice) | Herbicidal effect grade, C: Monochoria vaginalis (Monochoria vaginalis) | e: wheat, effect on crop (criteria 0-5) (wheat [4]) | P: Stellaria media, herbicidal effect (criteria 0-5) (Stellaria media) | f: beet, effect grade on crop (beet) | O: Chenopodium album, herbicidal effect (criteria 0-5) (Chenopodium album [5])
C=C(C)CN(CC)C(=O)OC1=C(c2c(C)cc(C)cc2C)C(=O)C(CC(C)=NOC)C1 (stereo not shown) [1-130] | 5 (Herbicidal ratio of 90% or more (almost completely withered)) | 0 (Herbicidal ratio of 5% or lower (almost no effect)) | 0 (Herbicidal ratio of 5% or lower (almost no effect)) | 0 (Herbicidal ratio of 5% or lower (almost no effect)) | 5 (Herbicidal ratio of 90% or more (almost completely withered)) | 0 (Herbicidal ratio of 5% or lower (almost no effect)) | 3 (Herbicidal ratio of 40% or higher and lower than 70%) | 0 (Herbicidal ratio of 5% or lower (almost no effect)) | 5 (Herbicidal ratio of 90% or more (almost completely withered)) | 4 (Herbicidal ratio of 70% or higher and lower than 90%) | 3 (Herbicidal ratio of 40% or higher and lower than 70%) | 5 (Herbicidal ratio of 90% or more (almost completely withered)) | 0 (Herbicidal ratio of 5% or lower (almost no effect)) | 0 (Herbicidal ratio of 5% or lower (almost no effect)) | 0 (Herbicidal ratio of 5% or lower (almost no effect)) | 2 (Herbicidal ratio of 20% or higher and lower than 40%) | 0 (Herbicidal ratio of 5% or lower (almost no effect)) | 0 (Herbicidal ratio of 5% or lower (almost no effect)) | 
CC(CC1CC(O)=C(c2c(C)cc(C)cc2C)C1=O)=NOCc1ccccc1Cl (stereo not shown) [1-113] | 4 (Herbicidal ratio of 70% or higher and lower than 90%) | 0 (Herbicidal ratio of 5% or lower (almost no effect)) | 0 (Herbicidal ratio of 5% or lower (almost no effect)) | 0 (Herbicidal ratio of 5% or lower (almost no effect)) | 4 (Herbicidal ratio of 70% or higher and lower than 90%) | 0 (Herbicidal ratio of 5% or lower (almost no effect)) | 5 (Herbicidal ratio of 90% or more (almost completely withered)) | 1 (Herbicidal ratio of 5% or higher and lower than 20%) |  |  | 5 (Herbicidal ratio of 90% or more (almost completely withered)) | 5 (Herbicidal ratio of 90% or more (almost completely withered)) | 0 (Herbicidal ratio of 5% or lower (almost no effect)) | 2 (Herbicidal ratio of 20% or higher and lower than 40%) | 4 (Herbicidal ratio of 70% or higher and lower than 90%) | 3 (Herbicidal ratio of 40% or higher and lower than 70%) | 3 (Herbicidal ratio of 40% or higher and lower than 70%) | 0 (Herbicidal ratio of 5% or lower (almost no effect)) | 2 (Herbicidal ratio of 20% or higher and lower than 40%)
CON=C(C)CC1CC(OC(=O)N(C)CCCCCl)=C(c2c(C)cc(C)cc2C)C1=O (stereo not shown) [1-126] | 3 (Herbicidal ratio of 40% or higher and lower than 70%) | 0 (Herbicidal ratio of 5% or lower (almost no effect)) | 0 (Herbicidal ratio of 5% or lower (almost no effect)) | 0 (Herbicidal ratio of 5% or lower (almost no effect)) | 4 (Herbicidal ratio of 70% or higher and lower than 90%) | 0 (Herbicidal ratio of 5% or lower (almost no effect)) | 4 (Herbicidal ratio of 70% or higher and lower than 90%) | 0 (Herbicidal ratio of 5% or lower (almost no effect)) | 5 (Herbicidal ratio of 90% or more (almost completely withered)) | 2 (Herbicidal ratio of 20% or higher and lower than 40%) | 4 (Herbicidal ratio of 70% or higher and lower than 90%) | 3 (Herbicidal ratio of 40% or higher and lower than 70%) | 0 (Herbicidal ratio of 5% or lower (almost no effect)) | 0 (Herbicidal ratio of 5% or lower (almost no effect)) | 0 (Herbicidal ratio of 5% or lower (almost no effect)) | 0 (Herbicidal ratio of 5% or lower (almost no effect)) | 0 (Herbicidal ratio of 5% or lower (almost no effect)) | 0 (Herbicidal ratio of 5% or lower (almost no effect)) | 
CON=C(CC1CC(O)=C(c2c(C)cc(C)cc2C)C1=O)C(F)(F)F (stereo not shown) [1-097] | 3 (Herbicidal ratio of 40% or higher and lower than 70%) | 0 (Herbicidal ratio of 5% or lower (almost no effect)) | 0 (Herbicidal ratio of 5% or lower (almost no effect)) | 0 (Herbicidal ratio of 5% or lower (almost no effect)) | 5 (Herbicidal ratio of 90% or more (almost completely withered)) | 3 (Herbicidal ratio of 40% or higher and lower than 70%) | 3 (Herbicidal ratio of 40% or higher and lower than 70%) | 3 (Herbicidal ratio of 40% or higher and lower than 70%) |  |  | 2 (Herbicidal ratio of 20% or higher and lower than 40%) | 4 (Herbicidal ratio of 70% or higher and lower than 90%) | 3 (Herbicidal ratio of 40% or higher and lower than 70%) | 2 (Herbicidal ratio of 20% or higher and lower than 40%) | 0 (Herbicidal ratio of 5% or lower (almost no effect)) | 2 (Herbicidal ratio of 20% or higher and lower than 40%) | 0 (Herbicidal ratio of 5% or lower (almost no effect)) | 0 (Herbicidal ratio of 5% or lower (almost no effect)) | 1 (Herbicidal ratio of 5% or higher and lower than 20%)
